Experiments:
Assay type in all cases: in vivo
rice (Oryra sativa) = experiment: Test B flooded paddy test; details: Flood, 250 g ai/ha; 0 to 100 scale where 0 is no effect and 100 is complete control; 13 to 15 d
Method in brief: (§1)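 Percent control, visually estimated after 13–15 d in the greenhouse on a 0–100 basis, compares treated pots with untreated ones; compound was put into paddy water 3 cm above the soil when plants had two leaves.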

[1] = test system: barnyardgrass (Echinochloa crus-galli); experiment: Test B flooded paddy test; details: Flood, 250 g ai/ha; 0 to 100 scale where 0 is no effect and 100 is complete control; 13 to 15 d
Method in brief: as §1

[2] = test system: ducksalad (Heteranthera limosa); experiment: Test B flooded paddy test; details: Flood, 250 g ai/ha; 0 to 100 scale where 0 is no effect and 100 is complete control; 13 to 15 d
Method in brief: as §1

[3] = test system: sedge, umbrella (small-flower umbrella sedge, Cyperus difformis); experiment: Test B flooded paddy test; details: Flood, 250 g ai/ha; 0 to 100 scale where 0 is no effect and 100 is complete control; 13 to 15 d
Method in brief: as §1

[4] = test system: Galium (catchweed bedstraw, Galium aparine); experiment: Test A postemergence
Method in brief: (§2)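 Visual injury scores from 0, no effect, to 100, complete control, were assigned versus untreated controls roughly 10 d after treatment in the greenhouse. Test chemicals, formulated with surfactant in a non-phytotoxic solvent, were applied to planted seeds as a preemergence soil spray or postemergence to one- to two-leaf plants 2 to 10 cm tall, in loam–sand soil.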

[5] = test system: ryegrass, Italian (Italian ryegrass, Lolium multiflorum); experiment: Test A postemergence
Method in brief: as §2

[6] = test system: wheat (Triticum aestivum); experiment: Test A postemergence
Method in brief: as §2

[7] = test system: pigweed (Amaranthus retroflexus); experiment: Test A postemergence
Method in brief: as §2

[8] = test system: ragweed (common ragweed, Ambrosia elatior); experiment: Test A postemergence
Method in brief: as §2

Kochia (Kochia scoparia) [9] = experiment: Test A postemergence
Method in brief: as §2

[10] = test system: blackgrass (Alopecurus myosuroides); experiment: Test A postemergence
Method in brief: as §2

corn (Zea mays) = experiment: Test A postemergence
Method in brief: as §2

[11] = test system: barnyardgrass (Echinochloa crus-galli); experiment: Test A postemergence
Method in brief: as §2

[12] = test system: giant foxtail (Setaria faberii); experiment: Test A postemergence
Method in brief: as §2

[13] = test system: ryegrass, Italian (Italian ryegrass, Lolium multiflorum); experiment: Test A preemergence; details: Preemergence; for Plant response rating, Ryegrass, Italian: 125 g ai/ha, visual injury after approximately 10 d, 0 to 100 scale where 0 is no effect and 100 is complete control; for Ryegrass, Italian plant response rating (0 to 100 scale, 0 is no effect, 100 is complete control): 500 g ai/ha, visual injury approx. 10 d
Method in brief: as §2

[14] = test system: pigweed (Amaranthus retroflexus); experiment: Test A preemergence; details: Preemergence; for Plant response rating, Pigweed: 125 g ai/ha, visual injury after approximately 10 d, 0 to 100 scale where 0 is no effect and 100 is complete control; for Pigweed plant response rating (0 to 100 scale, 0 is no effect, 100 is complete control): 500 g ai/ha, visual injury approx. 10 d
[15] = test system: ragweed (common ragweed, Ambrosia elatior); experiment: Test A preemergence; details: Preemergence; for Plant response rating, Ragweed: 125 g ai/ha, visual injury after approximately 10 d, 0 to 100 scale where 0 is no effect and 100 is complete control; for Ragweed plant response rating (0 to 100 scale, 0 is no effect, 100 is complete control): 500 g ai/ha, visual injury approx. 10 d
Method in brief: as §2

Kochia (Kochia scoparia) [16] = experiment: Test A preemergence; details: Preemergence; for Plant response rating, Kochia: 125 g ai/ha, visual injury after approximately 10 d, 0 to 100 scale where 0 is no effect and 100 is complete control; for Kochia plant response rating (0 to 100 scale, 0 is no effect, 100 is complete control): 500 g ai/ha, visual injury approx. 10 d
Method in brief: as §2

[17] = test system: barnyardgrass (Echinochloa crus-galli); experiment: Test A preemergence; details: Preemergence; for Plant response rating, Barnyardgrass: 125 g ai/ha, visual injury after approximately 10 d, 0 to 100 scale where 0 is no effect and 100 is complete control; for Barnyardgrass plant response rating (0 to 100 scale, 0 is no effect, 100 is complete control): 500 g ai/ha, visual injury approx. 10 d
Method in brief: as §2

[18] = test system: giant foxtail (Setaria faberii); experiment: Test A preemergence; details: Preemergence; for Plant response rating, Foxtail, Giant: 125 g ai/ha, visual injury after approximately 10 d, 0 to 100 scale where 0 is no effect and 100 is complete control; for Foxtail, Giant plant response rating (0 to 100 scale, 0 is no effect, 100 is complete control): 500 g ai/ha, visual injury approx. 10 d
Method in brief: as §2

[19] = 125 g ai/ha, postemergence, visual injury rating on 0 to 100 scale (0 no effect, 100 complete control), approx. 10 d
[20] = Postemergence, 500 g ai/ha, 0 to 100 scale where 0 is no effect and 100 is complete control
[21] = 125 g ai/ha, postemergence, visual rating after approx. 10 d, 0 to 100 scale (0 no effect, 100 complete control)

Row | Compound | Plant response rating, Rice (rice (Oryra sativa)) | Plant response rating, Barnyardgrass [1] | Plant response rating, Ducksalad [2] | Plant response rating, Sedge, Umbrella [3] | Plant response rating, Galium [4, 20] | Plant response rating, Ryegrass, Italian [5, 20] | Plant response rating, Wheat [6, 20] | Plant response rating, Pigweed [7, 20] | Plant response rating, Ragweed [8, 20] | Plant response rating, Kochia (Kochia (Kochia scoparia) [9]; [20]) | Plant response rating, Blackgrass [10, 20] | Plant response rating, Corn (corn (Zea mays); [20]) | Plant response rating, Barnyardgrass [11, 20] | Plant response rating, Foxtail, Giant [12, 20] | Plant response rating, Ryegrass, Italian [13] | Ryegrass, Italian plant response rating (0 to 100 scale, 0 is no effect, 100 is complete control) [13] | Plant response rating, Pigweed [14] | Pigweed plant response rating (0 to 100 scale, 0 is no effect, 100 is complete control) [14] | Plant response rating, Ragweed [15] | Ragweed plant response rating (0 to 100 scale, 0 is no effect, 100 is complete control) [15] | also measured
1 | O=C(Nc1ccccc1F)C1C(=O)N(CC=CCl)CC1c1cccc(C(F)(F)F)c1 (stereo not drawn) [Compound 483] | 0 | 0 | 30 | 0 | 0 | 0 | 0 | 0 | 0 | 20 | 0 | 0 | 60 | 70 | 0 | 30 | 0 | 0 | 0 | 0 | Galium plant response rating [4, 19]: 0; Ryegrass, Italian plant response rating [5, 19]: 0; Wheat plant response rating [6, 19]: 0; Pigweed plant response rating [7, 19]: 0; Ragweed plant response rating [8, 19]: 0; Kochia plant response rating (Kochia (Kochia scoparia) [9]; [19]): 0; Blackgrass plant response rating [10, 19]: 0; Corn plant response rating (corn (Zea mays); [19]): 0; Barnyardgrass plant response rating [11, 19]: 20; Foxtail, Giant plant response rating [12, 19]: 20; Plant response rating, Kochia (Kochia (Kochia scoparia) [16]): 0; Kochia plant response rating (0 to 100 scale, 0 is no effect, 100 is complete control) (Kochia (Kochia scoparia) [16]): 0; Plant response rating, Barnyardgrass [17]: 0; Barnyardgrass plant response rating (0 to 100 scale, 0 is no effect, 100 is complete control) [17]: 70; Plant response rating, Foxtail, Giant [18]: 70; Foxtail, Giant plant response rating (0 to 100 scale, 0 is no effect, 100 is complete control) [18]: 90
2 | O=C1NCC(c2cc(F)c(F)cc2F)C1C(=O)Nc1cccc(F)c1F (racemic) [Compound 550] | 50 | 55 | 95 | 0 | 60 | 20 | 30 | 0 | 0 | 50 | 50 | 20 | 90 | 90 | 0 | 20 | 0 | 0 | 0 | 0 | Plant response rating, Galium [4, 21]: 0; Plant response rating, Ryegrass, Italian [5, 21]: 0; Plant response rating, Wheat [6, 21]: 0; Plant response rating, Pigweed [7, 21]: 0; Plant response rating, Ragweed [8, 21]: 0; Plant response rating, Kochia (Kochia (Kochia scoparia) [9]; [21]): 0; Plant response rating, Blackgrass [10, 21]: 0; Plant response rating, Corn (corn (Zea mays); [21]): 0; Plant response rating, Barnyardgrass [11, 21]: 80; Plant response rating, Foxtail, Giant [12, 21]: 80; Plant response rating, Kochia (Kochia (Kochia scoparia) [16]): 0; Kochia plant response rating (0 to 100 scale, 0 is no effect, 100 is complete control) (Kochia (Kochia scoparia) [16]): 40; Plant response rating, Barnyardgrass [17]: 40; Barnyardgrass plant response rating (0 to 100 scale, 0 is no effect, 100 is complete control) [17]: 90; Plant response rating, Foxtail, Giant [18]: 90; Foxtail, Giant plant response rating (0 to 100 scale, 0 is no effect, 100 is complete control) [18]: 90

— patent US12077503B2, “Substituted cyclic amides and their use as herbicides” (FMC CORPORATION, priority 2015, dated 2024)
